Test results as given in patent US7902238B2, “2-aminooxazolines as TAAR1 ligands” (Hoffmann-La Roche Inc., priority 2007, dated 2011).

Experiments:
[1] = target: TAAR1; assay: Calculated Kd of the radioligand used in the TAAR1 binding assay; settings: species not stated
Procedure: Each experiment was performed in duplicate.

[2] = target: rat TAAR1 (Rattus norvegicus, UniProt Q923Y9); assay: Radioligand binding on membranes of HEK293 cells stably expressing rat TAAR1
[3] = target: mouse TAAR1 (Mus musculus, UniProt Q923Y8); assay: Radioligand binding on membranes of HEK293 cells stably expressing mouse TAAR1
Sequence of mouse TAAR1 (Q923Y8 whole entry): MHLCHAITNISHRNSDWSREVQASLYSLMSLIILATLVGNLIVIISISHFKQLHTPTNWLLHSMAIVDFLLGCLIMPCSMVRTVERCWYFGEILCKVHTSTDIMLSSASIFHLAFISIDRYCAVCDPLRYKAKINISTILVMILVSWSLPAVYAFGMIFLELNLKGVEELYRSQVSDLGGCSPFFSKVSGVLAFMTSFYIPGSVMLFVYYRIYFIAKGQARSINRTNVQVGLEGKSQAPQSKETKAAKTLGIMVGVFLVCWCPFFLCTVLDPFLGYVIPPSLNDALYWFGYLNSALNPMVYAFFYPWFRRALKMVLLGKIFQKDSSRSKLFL

Sequence of rat TAAR1 (Q923Y9 whole entry): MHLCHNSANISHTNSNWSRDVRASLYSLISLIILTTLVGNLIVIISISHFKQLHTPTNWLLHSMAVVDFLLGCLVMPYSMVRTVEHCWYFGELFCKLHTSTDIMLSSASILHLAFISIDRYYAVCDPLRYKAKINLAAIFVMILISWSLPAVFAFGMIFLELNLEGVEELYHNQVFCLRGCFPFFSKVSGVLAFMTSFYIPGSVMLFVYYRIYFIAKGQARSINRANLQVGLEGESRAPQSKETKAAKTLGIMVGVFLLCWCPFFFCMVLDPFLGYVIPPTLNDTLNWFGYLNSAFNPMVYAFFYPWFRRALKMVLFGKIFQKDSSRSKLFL

SMILES | Kd [1] | Ki [2] | Ki [3]
c1ccc2c(c1)CCCC2C1=NCCN1 (racemic) | 60 nM |  | 
COc1cc(N(C)C[C@@H]2COC(N)=N2)ccc1F [Example 138, (R)-4-{[(4-Fluoro-3-methoxy-phenyl)-methyl-amino]-methyl}-4,5-dihydro-oxazol-2-ylamine] |  | 9.3 nM | 4.4 nM
CCN(C[C@@H]1COC(N)=N1)c1ccc(F)c(OC)c1 [Example 139, (R)-4-{[Ethyl-(4-fluoro-3-methoxy-phenyl)-amino]-methyl}-4,5-dihydro-oxazol-2-ylamine] |  | 1.6 nM | 4.1 nM
COc1cc(N(C)C[C@@H]2COC(N)=N2)ccc1Cl [Example 140, (R)-4-{[(4-Chloro-3-methoxy-phenyl)-methyl-amino]-methyl}-4,5-dihydro-oxazol-2-ylamine] |  | 4.1 nM | 2.6 nM
CCN(C[C@@H]1COC(N)=N1)c1ccc(Cl)c(OC)c1 [Example 141, (R)-4-{[(4-Chloro-3-methoxy-phenyl)-ethyl-amino]-methyl}-4,5-dihydro-oxazol-2-ylamine] |  | 0.9 nM | 3.4 nM
CCN(C[C@H]1COC(N)=N1)c1ccc(F)cc1F [Example 145, (S)-4-{[(2,4-Difluoro-phenyl)-ethyl-amino]-methyl}-4,5-dihydro-oxazol-2-ylamine] |  | 4.8 nM | 8.2 nM
CN(C[C@H]1COC(N)=N1)c1ccc(F)cc1F [Example 146, (S)-4-{[(2,4-Difluoro-phenyl)-methyl-amino]-methyl}-4,5-dihydro-oxazol-2-ylamine] |  | 6.2 nM | 3.1 nM
NC1=N[C@@H](CNc2ccc(F)cc2F)CO1 [Example 152, (S)-4-[(2,4-Difluoro-phenylamino)-methyl]-4,5-dihydro-oxazol-2-ylamine] |  | 7.2 nM | 3.2 nM
CN(C[C@@H]1COC(N)=N1)c1ccc(Cl)c(Cl)c1 [Example 157, (R)-4-{[(3,4-Dichloro-phenyl)-methyl-amino]-methyl}-4,5-dihydro-oxazol-2-ylamine] |  | 2.1 nM | 1.7 nM
CCN(C[C@@H]1COC(N)=N1)c1ccc(Cl)c(Cl)c1 [Example 158, (R)-4-{[(3,4-Dichloro-phenyl)-ethyl-amino]-methyl}-4,5-dihydro-oxazol-2-ylamine] |  | 0.4 nM | 2.2 nM
CC(C)N(C[C@@H]1COC(N)=N1)c1ccc(Cl)c(Cl)c1 [Example 159, (R)-4-{[(3,4-Dichloro-phenyl)-isopropyl-amino]-methyl}-4,5-dihydro-oxazol-2-ylamine] |  | 1.4 nM | 5.3 nM
CN(C[C@H]1COC(N)=N1)c1cc(Cl)cc(Cl)c1 [Example 160, (S)-4-{[(3,5-Dichloro-phenyl)-methyl-amino]-methyl}-4,5-dihydro-oxazol-2-ylamine] |  | 0.9 nM | 1.3 nM
CN(C[C@@H]1COC(N)=N1)c1ccc2ccccc2c1 [Example 162, (R)-4-[(Methyl-naphthalen-2-yl-amino)-methyl]-4,5-dihydro-oxazol-2-ylamine] |  | 15.5 nM | 7.7 nM
CCN(C[C@@H]1COC(N)=N1)c1ccc2ccccc2c1 [Example 163, (R)-4-[(Ethyl-naphthalen-2-yl-amino)-methyl]-4,5-dihydro-oxazol-2-ylamine] |  | 5.2 nM | 2.9 nM
CCN(C[C@H]1COC(N)=N1)c1cc(Cl)cc(Cl)c1 [Example 165, (S)-4-{[(3,5-Dichloro-phenyl)-ethyl-amino]-methyl}-4,5-dihydro-oxazol-2-ylamine] |  | 0.9 nM | 1.4 nM
CCN(C[C@@H]1COC(N)=N1)c1cc(F)cc(C(F)(F)F)c1 [Example 167, (R)-4-{[Ethyl-(3-fluoro-5-trifluoromethyl-phenyl)-amino]-methyl}-4,5-dihydro-oxazol-2-ylamine] |  | 9.7 nM | 5.1 nM
CCN(C[C@H]1COC(N)=N1)c1ccc(C(F)(F)F)cc1C [Example 175, (S)-4-{[Ethyl-(2-methyl-4-trifluoromethyl-phenyl)-amino]-methyl}-4,5-dihydro-oxazol-2-ylamine] |  | 8.3 nM | 9.2 nM
